Reference: patent US11950596B2, “Methods of protecting seeds from oxidants and microorganisms” (The United States of America, as represented by the …, priority 2020, dated 2024)
Like-named read-outs stand apart in the source and are kept apart here. Marks after values point to notes of the source that are not given here.

Columns and labels:
[1] = system: P. chrysogenum 824; assay: Heat-sensitizing bioassay of OG (MFC) in other fungi; format: cell-based, Penicillium chrysogenum; conditions: 90 seconds
Protocol: (§1) As described in A. flavus 3357 test (see above), microfuge tubes were treated with mild heat (57.5° C.) or maintained at RT (22.0° C.) (90 seconds). After heat treatments, entire volume (200 μL) from each microfuge tube was spread onto fresh recovery LB agar (for bacteria) or PDA (for fungi), and plates were incubated at the optimum temperature for respective microorganisms (i.e., 35° C. for Aspergillus, 37° C. for E. coli, 28° C. for Penicillium/A. tumefaciens, respectively). The growth/survival of test microorganisms were monitored after 48 to 72 hrs of incubation.
(§2) Heat-sensitizing activity of OG against other fungi: Heat-sensitizing activity of OG was then investigated in other fungi (five Aspergillus strains and seven Penicillium strains) including fungicide resistant strains (i.e., P. expansum FR2, FR3 resistant to the conventional fungicide fludioxonil) (see Table 1).

[2] = system: A. tumefaciens 4212; assay: Heat-sensitizing bioassay of OG (MBC) in bacteria; format: cell-based, Agrobacterium tumefaciens; conditions: 90 seconds, read-out: minimum bactericidal concentration (MBC) of OG
Protocol: as §1
Heat-sensitizing activity of OG against bacteria (A. tumefaciens, E. coli): Heat-sensitizing activity of OG was also investigated against bacterial cells (i.e., E. coli and plant-pathogenic A. tumefaciens). […] (Table 4; FIG. 2).

[3] = system: P. italicum 983; assay: Heat-sensitizing bioassay of OG (MFC) in other fungi; format: cell-based, Penicillium italicum; conditions: 90 seconds
Protocol: as §1, §2

[4] = system: A. flavus 3357; assay: Heat-sensitizing antimicrobial bioassay (MFC) in A. flavus 3357; format: cell-based, Aspergillus flavus; conditions: for MFC: Aspergillus flavus, 3357, 0.025 h, read-out: minimum fungicidal concentration (MFC; >99.999% fungal death)
Protocol: Antimicrobial bioassay: The heat-sensitizing effect of twenty-eight compounds (phenolic derivatives, alkyl gallates, other food additives) (0.025, 0.050, 0.075, 0.100, 0.200, 0.300, 0.400, 0.500, 0.600 or 0.700 mM) and six drugs/fungicides (1, 2, 4, 8, 16, 32, 64 ppm) (Table 2) were examined using A. flavus 3357. Two hundred μL of fungal spores (1.5×10^5 to 2.1×10^5 CFU) dispersed in PBS was transferred into individual microfuge tube (1.5 mL vol.), where (1) “control” tube contained DMSO only, while (2) “treatment” tube contained test chemical/drug at respective concentration. The tubes were then treated with mild heat (57.5° C.) or maintained at room temperature (RT; 22.0° C.) for 90 seconds. After treatments, entire volume (200 μL) from each microfuge tube was spread onto fresh recovery PDA, and plates were incubated at respective temperatures. Fungal growth/survival was monitored after 48 hrs of incubation.
as §1
Determination of optimum temperature and time duration for screening heat sensitizers in A. flavus 3357: For the determination of the optimum temperature and time points for screening heat sensitizers, fungal (A. flavus 3357) survivability was tested by exposing fungal spores (1.5×10^5 to 2.1×10^5 CFU) to different temperatures (50, 55, 57.5, 60, 65° C.) and time points (0.5, 1.0, 1.5, 2.0, 2.5, 3.0, 3.5, 4.0, 4.5, 5.0 min).

[5] = system: A. parasiticus 5862; assay: Heat-sensitizing bioassay of OG (MFC) in other fungi; format: cell-based, Aspergillus parasiticus; conditions: 90 seconds
Protocol: as §1, §2

[6] = system: A. parasiticus 2999; assay: as above; format: cell-based, Aspergillus parasiticus; conditions: 90 seconds
Protocol: as §1, §2

[7] = system: P. expansum W1; assay: as above; format: cell-based; conditions: Penicillium expansum, 90 seconds
Protocol: as §1, §2

[8] = system: P. expansum FR2; assay: as above; format: cell-based; conditions: Penicillium expansum, fludioxonil resistant mutant
Protocol: as §1, §2

[9] = system: P. expansum FR3; assay: as above; format: cell-based; conditions: Penicillium expansum, fludioxonil resistant mutant
Protocol: as §1, §2

[10] = system: P. expansum W2; assay: as above; format: cell-based; conditions: Penicillium expansum, 90 seconds
Protocol: as §1, §2

CCCCCCCCOC(=O)c1cc(O)c(O)c(O)c1 [Octyl gallate]
MFC ([1]; Penicillium chrysogenum, 824, 22.0° C.): 250 µM | MFC ([1]; Penicillium chrysogenum, 824, 57.5° C.): 130 µM | MBC ([2]; Agrobacterium tumefaciens, 4212, 22° C.): 200 µM | MBC ([2]; Agrobacterium tumefaciens, 4212, 57.5° C.): 75 µM | MFC ([3]; Penicillium italicum, 983, 22.0° C.): 200 µM | MFC ([3]; Penicillium italicum, 983, 57.5° C.): 100 µM | minimum fungicidal concentration (MFC; >99.999% fungal death) [4]: 180* μM | MFC ([4]; 22.0° C. (RT), 90 seconds, PBS): 250 µM | MFC [4]: 180 µM | MFC ([5]; Aspergillus parasiticus, 5862, 22.0° C.): > 300 µM | MFC ([5]; Aspergillus parasiticus, 5862, 57.5° C.): 300 µM | MFC ([6]; Aspergillus parasiticus, 2999, 22.0° C.): > 300 µM | MFC ([6]; Aspergillus parasiticus, 2999, 57.5° C.): 200 µM | MFC ([7]; W1, 22.0° C.): > 300 µM | MFC ([7]; W1, 57.5° C.): 160 µM | MFC ([8]; FR2, read-out: MFC of OG, 22.0° C., 90 seconds): > 300 µM | MFC ([8]; FR2, read-out: MFC of OG, 57.5° C., 90 seconds): 190 µM | MFC ([9]; FR3, read-out: MFC of OG, 22.0° C., 90 seconds): > 300 µM | MFC ([9]; FR3, read-out: MFC of OG, 57.5° C., 90 seconds): 160 µM | MFC ([10]; W2, 22.0° C.): > 300 µM | MFC ([10]; W2, 57.5° C.): 170 µM
